Assay results reported in US8207121B2, “Sensitization to another anticancer therapy and/or amelioration of a side effect of another anticancer therapy by treatment with a GST-activated anticancer compound” (Telik, Inc., priority 2004, dated 2012).
Structures can show the parent of a compound that is named as a salt. Where two headings read alike, the source gives them in different places.

How the values were obtained:
[1] = target: T1, GST M1a-1a (Homo sapiens, UniProt P09488); details: cited from earlier work
T1 sequence (P09488 1-218): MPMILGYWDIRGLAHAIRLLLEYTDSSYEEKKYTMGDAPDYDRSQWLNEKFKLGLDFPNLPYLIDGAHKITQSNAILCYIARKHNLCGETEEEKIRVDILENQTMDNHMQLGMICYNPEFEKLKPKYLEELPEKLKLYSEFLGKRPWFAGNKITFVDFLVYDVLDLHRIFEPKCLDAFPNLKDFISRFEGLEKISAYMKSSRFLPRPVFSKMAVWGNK

[2] = target: GST P1-1 (Homo sapiens, UniProt P09211); details: cited from earlier work
Chain of GST P1-1 (P09211 2-210 limits assumed): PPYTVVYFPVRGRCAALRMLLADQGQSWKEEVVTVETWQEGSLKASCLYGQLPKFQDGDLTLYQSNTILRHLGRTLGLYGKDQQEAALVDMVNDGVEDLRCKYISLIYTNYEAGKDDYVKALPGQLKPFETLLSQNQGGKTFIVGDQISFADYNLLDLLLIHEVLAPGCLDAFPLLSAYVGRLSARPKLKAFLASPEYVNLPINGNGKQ

[3] = target: T2, GST A1-1 (Homo sapiens, UniProt P08263); details: cited from earlier work
T2 sequence (P08263 1-222): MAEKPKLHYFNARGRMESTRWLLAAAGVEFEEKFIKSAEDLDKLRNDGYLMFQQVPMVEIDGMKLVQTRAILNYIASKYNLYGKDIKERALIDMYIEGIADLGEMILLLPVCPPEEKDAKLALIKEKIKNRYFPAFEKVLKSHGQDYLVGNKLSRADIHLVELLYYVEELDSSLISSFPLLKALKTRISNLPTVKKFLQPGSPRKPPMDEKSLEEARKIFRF

[4] = system: M7609 xenografts; details: xenografts engineered to have high, medium, and low GST P1-1; cited from earlier work
[5] = system: ovarian, breast, non-small cell lung, and colorectal cancers; details: cited from earlier work
[6] = Clinical observation: side effects of carboplatin therapy in ovarian cancer patients; format: in vivo, human
Text: Ovarian cancer patients treated with carboplatin-containing regimens underwent repeated cycles of alopecia corresponding to the administration of the carboplatin.

[7] = system: OVCAR-TLK cells; assay: Cytotoxicity assay (CellTiter-Glo), canfosfamide-modified OVCAR-TLK; format: cell-based, human
Experimental: (§1) A paclitaxel-resistant derivative cell line OVCAR-PR was developed from the human ovarian cancer cell line OVCAR-3 by growing OVCAR-3 cells in gradually increasing concentrations (up to 5 nM) of paclitaxel. A canfosfamide-modified derivative cell line OVCAR-TLK was developed by growing OVCAR-3 cells in gradually increasing concentrations (up to 6.5 μM) of canfosfamide. To maintain the phenotypes of the cell lines, the cells were treated with the compounds at weekly intervals. Cells were grown in compound-free media for 24 hours before any experiments.
(§2) Cytotoxicity assay. Log-phase cells were seeded in 96-well plates and incubated with the diluted compound or solvent for 2-3 doubling times. The extent of cell growth was quantitated using the CellTiter-Glo assay (Promega Corporation, Madison, Wis., U.S.A.), used in accordance with the assay kit directions. The amount of ATP in the lysate, which corresponds to the number of viable cells, was quantitated using a luminometer. All assays were conducted in triplicate wells, with solvent control. The extent of cell growth was expressed as a percentage of the signal from the solvent control wells. The mean of the triplicate wells was computed and IC50 determined using PrismGraph.
Cell doubling time. 1.5×10^4 cells were seeded in a 25-mL flask. The cells were grown for four days and the number of viable cells was determined by Trypan Blue staining and manual counting using a hemocytometer. The assay was conducted in triplicate at each time point. The times for two cell doublings for OVCAR-3 and OVCAR-TLK cells were approximately 3.5 and 5.5 days, respectively.

[8] = system: OVCAR-PR cells; assay: Cytotoxicity assay (CellTiter-Glo), paclitaxel-resistant OVCAR-PR; format: cell-based, human; details: for IC50: Homo sapiens; for increase in resistance: IC50 in OVCAR-PR cells versus OVCAR-3 cells
Experimental: as §1, §2

[9] = system: cell culture and tumor biopsies; details: cited from earlier work
[10] = system: M6709 human colon carcinoma cell line selected for resistance to doxorubicin; details: line overexpresses GST P1-1; cited from earlier work
[11] = system: OVCAR-3 cells; assay: Cytotoxicity assay (CellTiter-Glo), OVCAR-3; format: cell-based; details: Homo sapiens
Experimental: Cancer cell line. The human cancer cell line OVCAR-3 (ovarian adenocarcinoma) was obtained from the National Cancer Institute, Bethesda, Md., U.S.A.
as §1, §2

[12] = system: MCF-7 human breast carcinoma cell line selected for resistance to cyclophosphamide; details: line overexpresses GST P1-1; cited from earlier work

For `N[C@@H](CCC(=O)N[C@@H](CS(=O)(=O)CCOP(=O)(N(CCCl)CCCl)N(CCCl)CCCl)C(=O)NCC(=O)O)C(=O)O` [TLK231, L-γ-glutamyl-3-[[2-[[bis[bis(2-chloroethyl)amino]phosphinyl]oxy]ethyl]sulfonyl]-L-alanyl-glycine], the “activation by GST isoenzyme” value [1] is listed as “activated”.
For `N[C@@H](CCC(=O)N[C@@H](Cc1cccc(S(=O)(=O)CCOP(=O)(N(CCCl)CCCl)N(CCCl)CCCl)c1)C(=O)NCC(=O)O)C(=O)O` [TLK(296, L-γ-glutamyl-3-[[2-[[bis[bis(2-chloroethyl)amino]phosphinyl]oxy]ethyl]sulfonyl]-L-phenylalanyl-glycine], the “activation by GST isoenzyme” value [2] is given as “activated”.
For `C[C@@](NC(=O)[C@H](CS(=O)(=O)CCOP(=O)(N(CCCl)CCCl)N(CCCl)CCCl)NC(=O)CC[C@H](N)C(=O)O)(C(=O)O)c1ccccc1` [TLK(303, L-γ-glutamyl-3-[[2-[[bis[bis(2-chloroethyl)-amino]phosphinyl]oxy]ethyl]sulfonyl]-L-alanyl-2-phenyl-(2S)-alanine], the “activation by GST isoenzyme” value [3] is given as “activated”.
In the case of `N[C@@H](CCC(=O)N[C@@H](CS(=O)(=O)CCOP(=O)(N(CCCl)CCCl)N(CCCl)CCCl)C(=O)N[C@@H](C(=O)O)c1ccccc1)C(=O)O` [canfosfamide hydrochloride], the “potency versus level of GST P1-1” value [4] is listed as “positively correlated with the level of GST P1-1”, the “hematological toxicity in patients” value ([5]; treated patients) is listed as “very low incidence of clinically significant hematological toxicity” and the “recurrence of alopecia with carboplatin treatment” value ([6]; carboplatin AUC 5 or 6 mg/mL·min with canfosfamide hydrochloride 500, 750 and 960 mg/m^2) is listed as “did not experience the same recurrence of alopecia”. The “hematologic and neurologic side effects of carboplatin” value ([6]; carboplatin in combination with canfosfamide hydrochloride) was “similarly ameliorated”.
With `N[C@@H](CCC(=O)N[C@@H](CS(=O)(=O)CCOP(=O)(N(CCCl)CCCl)N(CCCl)CCCl)C(=O)N[C@@H](C(=O)O)c1ccccc1)C(=O)O` [canfosfamide, L-γ-glutamyl-3-[[2-[[bis[bis(2-choroethyl)-amino]phosphinyl]oxy]ethyl]sulfonyl]-L-alanyl-2-phenyl-(2R)-glycine] the “sensitivity to canfosfamide, OVCAR-3 versus OVCAR-TLK” value ([7]; treated for approximately two doubling times) was “approximately equally sensitive”, the IC50 [8] was 1.6 µM and the increase in resistance [8] was 1.2 fold. For the same compound, the “cross-resistance to platinum, paclitaxel, doxorubicin and gemcitabine” value [9] was “non-cross-resistant”, the “activation by GST isoenzyme” value [3] was “activated” and the “potency versus parental cell line” value [10] was “more potent”. The clinical activity ([5]; colorectal and breast cancer) was “single agent antitumor activity”, the clinical activity ([5]; patients with non-small cell lung cancer and ovarian cancer) was “significant single agent antitumor activity and improvement in survival” and the IC50 ([11]; OVCAR-3) was 1.3 µM. The “potency versus parental cell line” value [12] was “more potent” and the “activation by GST isoenzyme” value [2] was “activated”.
With `CC(=O)O[C@H]1C(=O)[C@@]2(C)[C@H]([C@H](OC(=O)c3ccccc3)[C@]3(O)C[C@H](OC(=O)[C@H](O)[C@@H](NC(=O)c4ccccc4)c4ccccc4)C(C)=C1C3(C)C)[C@]1(OC(C)=O)CO[C@@H]1C[C@@H]2O` [paclitaxel] the “IC50s for paclitaxel, OVCAR-3 versus OVCAR-TLK” value ([7]; equal treatment times) was “approximately the same”, the “IC50 for paclitaxel lower in OVCAR-TLK than in OVCAR-3 cells” value ([7]; treatment times adjusted for doubling times (approximately two doubling times)) was “about 2 fold” and the IC50 ([8]; OVCAR-PR cells, read-out: IC50) was 0.049 µM. For the same compound, the increase in resistance [8] was “more than 35 fold”, the “decrease of IC50 for paclitaxel after canfosfamide pretreatment” value ([8]; OVCAR-PR cells first treated overnight with 4 μM canfosfamide) was “approximately 3 fold” and the IC50 ([11]; OVCAR-3 cells, read-out: IC50) was 0.0013 µM.
